In one experiment the test system is normal hepatocytes. Briefly: Metal-induced lipid peroxidation (MDA) in normal cultured hepatocytes. To be noted: for IC50: Rattus norvegicus, Hepatocyte, normal hepatocytes, 100 μM, read-out: IC50 of lipid peroxidation inhibition. The experiment is classed as cell-based, Wistar rats. An excerpt:
(§1) Isolation and culture of hepatocytes: Male Wistar rats weighing 180 to 210 g were fed with standard chow and water ad libitum. Hepatocytes were isolated by collagenase perfusion method as described by Wolkoff et al. (J Clin Invest 1987; 79: 1259-1268). Briefly, the liver was perfused with collagenase type IV (Sigma Chemical, St. Louis, Mo., USA) and isolated hepatocytes were suspended in culture medium consisting of Waymouth's 752/1 (Gibco, Grand Island, N.Y., USA) containing 5% heat-inactivated fetal bovine serum, 2.5 mM CaCl2, 5 μg/mL bovine insulin (Sigma), 100 U/mL penicillin and 0.1 mg/mL streptomycin. The isolated cells were further fractionated on Percoll density gradients to obtain a viability higher than 98%, as ascertained by trypan blue. Approximately 1.5×10^6 cells in 3 mL or approximately 5.0×10^6 cells in 10 mL in individual 60- or 100-mm diameter Lux culture dishes were placed in an incubator in an atmosphere of […] at 37° C., and then separately cultured. After a 9 hr incubation, the monolayer of hepatocytes was cultured for an additional 12 hr in the medium containing 1.0 mM α-linolenic acid (LNA)-bovine serum albumin (BSA). Seventy percent or more of added LNA was adsorbed by cultured cells after incubation.
(§2) After incubation for 6 hr, the medium was separated. Malonyldialdehyde (MDA) in the medium was assessed by a slight modification of the Uchiyama and Mihara method (Anal Biochem 1978; 86: 271-278). Briefly, to 0.1 ml of the medium in a 12 ml glass tube, 3 ml of 1% […] and 1 ml of 0.67% thiobarbituric acid were added and heated at 100° C. for 45 min. After cooling in ice water, 4 ml of n-butanol was added and the resulting mixture was shaken and then centrifuged to separate the butanol layer. The fluorescence intensity in the butanol layer was assayed at the excitation and emission wavelengths of 515 and 553 nm, respectively. The auto-oxidation products of fatty acid in the medium were within 0.3 nmol and were used as blank. Dimethyl sulfoxide (20 μl) was diluted in 2000 μl of the culture medium, including control cultures of metal ions only in the absence of the test compounds and the final concentration of 1% dimethyl sulfoxide had no measurable effect on lipid peroxidation in basal cultured hepatocytes.

Another experiment concerns LNA-loaded hepatocytes. Put plainly: Metal-induced lipid peroxidation (MDA) in LNA-loaded hepatocytes. The experiment is classed as cell-based, Wistar rats. Particulars: Rattus norvegicus, Hepatocyte, LNA-loaded cells, 100 μM, read-out: IC50 of lipid peroxidation inhibition.
Excerpt: as §1
as §2, with “Dimethyl sulfoxide (20 μl) was diluted in 2000 μl of the culture medium, including control cultures of metal ions only in the absence of the test compounds and the final concentration of 1% dimethyl sulfoxide had no measurable effect on lipid peroxidation in basal cultured hepatocytes.” left out

In experiment [1] the test system is lysosomal fractions. Briefly: Oxidative damage tests of lysosomes: enzyme release with AAPH or AMVN radical generators. The format is biochemical, Wistar rats. To be noted: 10^−4M, ± SE. The method, then: (§3) Preparation of lysosomal fractions: After homogenizing in 9 volumes of 0.3 M sucrose, the liver was centrifuged at 450×g for 10 min. The supernatants were again centrifuged at 3500×g for 10 min, and the lysosome-containing supernatant was centrifuged at 10000×g for 10 min. The pellets were washed and centrifuged at 10000×g for 10 min, and resuspended in the sucrose buffer to a protein concentration of 15 mg/ml.
Oxidative damage tests of lysosomes: Assays for the release of acid phosphatase and β-N-acetylglucosaminidase from lysosomes were carried out by incubating lysosomal suspensions in the presence of test compounds. […] For this experiment, lysosomal suspensions were preincubated in the presence of 1 mM of the test compounds for 30 min and centrifuged at 12000×g for 10 min. Then the pellets were washed in 0.15 M KCl-5 mM Tris buffer (pH 7.4), centrifuged and re-suspended in 0.1M acetate buffer (pH 5.5).

The test system of experiment [2] is lysosomal fractions. Put plainly: Lysosome fragility test: LDH leakage and β-galactosidase release with metal ions. The format is biochemical, Wistar rats. Particulars: YHK at the higher concentration, p<0.05. How it is done:
as §3
Lysosome fragility test: The fraction was incubated with the test compound and each of metal ions and β-galactosidase activity was measured in accordance with the method of Olsson et al. (Anal Cell Pathol 1990; 2: 179-188), using 4-methylumbelliferyl-β-galactosidase as a substrate. The results were expressed as percentage of total β-galactosidase released. Lactate dehydrogenase leakage was also measured in the culture medium in accordance with the method of Hillaire et al. (Hepatology 1995; 22: 82-87).
On the technique in general: LDH leaks from cells whose membrane has failed.

Where two headings read alike, the source gives them in different places.

Results on one compound are retold here after patent publication US20060105061A1, “Galenical composition” (priority 2004, published 2006).

A word on the IC50: it is the concentration that gives 50% inhibition. Consider `COc1cc(C2Oc3cc([C@H]4Oc5cc(O)cc(O)c5C(=O)[C@@H]4O)ccc3OC2CO)ccc1O` (stereo partly drawn) [Sylibin, sylibin], for which the IC50 is 7.3 ± 0.3 µM in the experiment on normal hepatocytes (CuSO4-induced); 18.9 ± 3.2 µM in the experiment on normal hepatocytes (FeSO4-induced); 10.8 ± 1.2 µM with normal hepatocytes (VCl3-induced); 16.8 ± 1.5 µM in the experiment on LNA-loaded hepatocytes (CuSO4-induced); 79.9 ± 9.2 µM in the experiment on LNA-loaded hepatocytes (FeSO4-induced); 17.3 ± 1.2 µM with LNA-loaded hepatocytes (VCl3-induced). Besides, the “MDA generation in the medium” value in the experiment on normal hepatocytes (metal catalysts, up to 6 hr, p<0.05) is “significantly decreased”. Moreover, the “Acid phosphatase release, enzyme activity” value in the experiment on lysosomal fractions [1] (AAPH-induced release) is on record as 51.9 ± 5.6 % of control; in the experiment on lysosomal fractions [1] (AMVN-induced release), 83.9 ± 10.4 % of control. In addition, the entries for the “β-N-acetylglucosaminidase release, enzyme activity” value with lysosomal fractions [1] (AAPH-induced release) and in the experiment with lysosomal fractions [1] (AMVN-induced release) were 54.6 ± 4.7 % of control and 77.3 ± 7.4 % of control, respectively. In addition, in the experiment with lysosomal fractions [2], the “β-galactosidase release from lysosomes” value is reported as “significantly decreased”.
